Source: patent publication US10294202B2, “Pyrrolidinones as herbicides” (FMC Corporation, priority 2013, dated 2019)

Columns and labels:
[1] = system: kochia; assay: Test A pre-/postemergence herbicide test; type: in vivo, Kochia scoparia
In short: (§1)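 Visual 0–100 ratings (100 = complete control) made about 10 days after treatment, greenhouse-held plants compared with untreated controls. Treatments: postemergence sprays on one- to two-leaf plants (2–10 cm tall) and preemergence directed soil sprays after planting in loam–sand, chemicals formulated in non-phytotoxic solvent containing surfactant.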

[2] = system: ragweed; assay: Test A pre-/postemergence herbicide test; type: in vivo, Ambrosia elatior
In short: as §1

[3] = system: ryegrass, Italian; assay: Test A pre-/postemergence herbicide test; type: in vivo, Lolium multiflorum
In short: as §1

[4] = system: blackgrass; assay: Test A postemergence herbicide test; type: in vivo, Alopecurus myosuroides
In short: (§2)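 Potted in loam soil/sand blend; postemergence application at 1–2 leaf stage (2–10 cm). Greenhouse ~10 d. Visual injury vs untreated, 0–100 scale; 100 = complete control.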

[5] = system: galium; assay: Test A postemergence herbicide test; type: in vivo, Galium aparine
In short: as §2

[6] = system: kochia; assay: Test C pre-/postemergence herbicide test; type: in vivo, Kochia scoparia; conditions: Postemergence
Excerpt: Seeds of plant species selected from blackgrass (Alopecurus myosuroides), ryegrass, Italian (Italian ryegrass, Lolium multiflorum), wheat (winter wheat, Triticum aestivum), galium (catchweed bedstraw, Galium aparine), corn (Zea mays), crabgrass, large (large crabgrass, Digitaria sanguinalis), foxtail, giant (giant foxtail, Setaria faberii), johnsongrass (Sorghum halepense), lambsquarters (Chenopodium album), morningglory (Ipomoea coccinea), nutsedge, yellow (yellow nutsedge, Cyperus esculentus), pigweed (Amaranthus retroflexus), ragweed (common ragweed, Ambrosia elatior), soybean (Glycine max), barnyardgrass (Echinochloa crus-galli), oilseed rape (Brassica napus), waterhemp (common waterhemp, Amaranthus rudis), kochia (Kochia scoparia), oat, wild (wild oat, Avena fatua), surinam grass (Brachiaria decumbens), foxtail, green (green foxtail, Setaria viridis), goosegrass (Eleusine indica), bromegrass, downy (downy bromegrass, Bromus tectorum), nightshade (eastern black nightshade, Solanum ptycanthum), cocklebur (common cocklebur, Xanthium strumarium), cupgrass, woolly (woolly cupgrass, Eriochloa villosa), bermudagrass (Cynodon dactylon), sunflower, (common oilseed sunflower, Helianthus annuus), Russian thistle (Salsola kali) and velvetleaf (Abutilon theophrasti) were planted into a blend of loam soil and sand and treated preemergence with test chemicals formulated in a non-phytotoxic solvent mixture which included a surfactant. At the same time, plants selected from these crop and weed species and also barley (winter barley, Hordeum vulgare), […]), chickweed (common chickweed, Stellaria media), deadnettle (henbit deadnettle, Lamium amplexicaule), and canarygrass (littleseed canarygrass, Phalaris minor) were planted in pots containing Redi-Earth® planting medium (Scotts Company, 14111 Scottslawn Road, Marysville, Ohio 43041) comprising spaghnum peat moss, vermiculite, wetting agent and starter nutrients and treated with postemergence applications of test chemicals formulated in the same manner. Plants ranged in height from 2 to 18 cm (1- to 4-leaf stage) for postemergence treatments. Treated plants and controls were maintained in a greenhouse for 13 to 15 days, after which time all species were compared to controls and visually evaluated. Plant response ratings, summarized in Table C, are based on a scale of 0 to 100 where 0 is no effect and 100 is complete control. A dash (-) response means no test result.

[7] = system: rice; assay: Test C flooded paddy test; type: in vivo, Oryza sativa; conditions: Flood
In short: (§3)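 Plants at the 2-leaf stage in pots flooded to 3 cm were treated by applying compound directly to the paddy water, with depth held throughout. After 13 to 15 days in a greenhouse, response was rated visually against controls on a 0 (no effect) to 100 (complete control) scale.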

[8] = system: sedge, umbrella; assay: Test C flooded paddy test; type: in vivo, Cyperus difformis; conditions: Flood
In short: as §3

[9] = system: barnyardgrass; assay: Test C flooded paddy test; type: in vivo, Echinochloa crus-galli; conditions: Flood
In short: as §3

[10] = Postemergence, 125 g ai/ha, 0 to 100 scale, 0 is no effect, 100 is complete control
[11] = Postemergence, 500 g ai/ha, 0 to 100 scale (0 no effect, 100 complete control)
[12] = Preemergence, 125 g ai/ha, 0 to 100 scale where 0 is no effect and 100 is complete control
[13] = preemergence, 500 g ai/ha, 0 to 100 scale, 0 is no effect and 100 is complete control
[14] = Postemergence, 125 g ai/ha, visual rating on 0 to 100 scale (0 no effect, 100 complete control), approx. 10 days
[15] = 125 g ai/ha, 0 to 100 scale, 0 is no effect, 100 is complete control
[16] = 500 g ai/ha, 0 to 100 scale (0 no effect, 100 complete control)
[17] = 16 g ai/ha, scale 0 to 100 (0 no effect, 100 complete control)
[18] = 31 g ai/ha, scale 0 to 100 (0 no effect, 100 complete control)
[19] = 62 g ai/ha, scale 0 (no effect) to 100 (complete control)
[20] = 125 g ai/ha, scale of 0 to 100 where 0 is no effect and 100 is complete control, 13 to 15 days
[21] = 250 g ai/ha, scale of 0 to 100 where 0 is no effect and 100 is complete control, 13 to 15 days
[22] = 125 g ai/ha, scale 0 to 100 (0 no effect, 100 complete control)
[23] = 250 g ai/ha, scale 0 to 100 (0 no effect, 100 complete control)
[24] = 62 g ai/ha, scale of 0 to 100 where 0 is no effect and 100 is complete control, 13 to 15 days
[25] = Preemergence, 500 g ai/ha, visual rating on 0 to 100 scale (0 no effect, 100 complete control)
[26] = 125 g ai/ha, visual rating on 0 to 100 scale (0 no effect, 100 complete control), approx. 10 days

Compound	Plant response rating, Kochia [1, 10]	Plant response rating, Kochia [1, 11]	Plant response rating, Kochia [1, 12]	Plant response rating, Kochia [1, 13]	Plant response rating, Ragweed [2, 14]	Plant response rating, Ragweed [2, 11]	Plant response rating, Ragweed [2, 12]	Plant response rating, Ragweed [2, 13]	Plant response rating, Ryegrass, Italian [3, 14]	Plant response rating, Ryegrass, Italian [3, 11]	Plant response rating, Ryegrass, Italian [3, 12]	Plant response rating, Ryegrass, Italian [3, 13]	Plant response rating, Blackgrass [4, 15]	Plant response rating, Blackgrass [4, 16]	Plant response rating, Galium [5, 15]	Plant response rating, Galium [5, 16]	Plant response rating, Kochia [6, 17]	Plant response rating, Kochia [6, 18]	Plant response rating, Kochia [6, 19]	Plant response rating, Kochia [6, 22]	other results
CN1CC(c2ccc(F)cc2)C(C(=O)Nc2cccc(F)c2F)C1=O (centres unmarked) [Compound 271]	60	80	50	80	0	60	20	80	0	40	0	30	50	60	40	70	0	0	10	–	Plant response rating, Kochia ([6]; 8 g ai/ha, scale 0 to 100 (0 no effect, 100 complete control)): 0; Plant response rating, Rice [7, 20]: 0; Plant response rating, Rice [7, 21]: 0; Plant response rating, Rice ([7]; 500 g ai/ha, scale 0 to 100): 0; Plant response rating, Rice ([7]; 1000 g ai/ha, scale 0 to 100): 0; Plant response rating, Sedge, Umbrella [8, 20]: 0; Plant response rating, Sedge, Umbrella [8, 21]: 0; Plant response rating, Sedge, Umbrella ([8]; 500 g ai/ha, scale 0 to 100): 0; Plant response rating, Sedge, Umbrella ([8]; 1000 g ai/ha, scale 0 to 100): 0; Plant response rating, Barnyardgrass [9, 20]: 40; Plant response rating, Barnyardgrass [9, 21]: 45; Plant response rating, Barnyardgrass ([9]; 500 g ai/ha, scale 0 to 100): 75; Plant response rating, Barnyardgrass ([9]; 1000 g ai/ha, scale 0 to 100): 80
O=C1NCC(c2cc(F)cc(F)c2)C1C(=O)Nc1cccc(F)c1F (racemic) [Compound 279]	0	40	40	80	0	0	0	0	0	0	0	60	60	70	40	50	–	0	30	85	Plant response rating, Kochia [6, 23]: 35
CN1CC(c2cccc(C(F)(F)F)c2)C(C(=O)Nc2ccccc2F)C1=O (centres unmarked) [Compound 277]	30	30	30	60	30	30	20	20	30	40	30	30	50	50	70	70	0	0	5	60	Plant response rating, Rice [7, 24]: 0; Plant response rating, Rice [7, 20]: 0; Plant response rating, Rice [7, 21]: 0; Plant response rating, Rice ([7]; 500 g ai/ha, scale 0 to 100): 0; Plant response rating, Sedge, Umbrella [8, 24]: 0; Plant response rating, Sedge, Umbrella [8, 20]: 0; Plant response rating, Sedge, Umbrella [8, 21]: 0; Plant response rating, Sedge, Umbrella ([8]; 500 g ai/ha, scale 0 to 100): 0; Plant response rating, Barnyardgrass [9, 24]: 50; Plant response rating, Barnyardgrass [9, 20]: 65; Plant response rating, Barnyardgrass [9, 21]: 70; Plant response rating, Barnyardgrass ([9]; 500 g ai/ha, scale 0 to 100): 70
CN1CC(c2ccc(F)c(F)c2)C(C(=O)Nc2ccccc2F)C1=O (centres unmarked) [Compound 302]	–	60	50	–	0	0	0	–	0	60	0	–	–	60	–	60	–	0	0	0	Plant response rating, Kochia [1, 14]: 10; Kochia plant response rating [1, 25]: 70; Ragweed plant response rating [2, 25]: 30; Ryegrass, Italian plant response rating [3, 25]: 60; Plant response rating, Blackgrass [4, 26]: 40; Plant response rating, Galium [5, 26]: 60; Plant response rating, Kochia [6, 23]: 60
